In US20130309187A1, “SKIN-WHITENING AGENT CONTAINING 3-HYDROXY-2-PYRONE” (NICHIREI BIOSCIENCES INC., priority 2011, published 2013):

Key:
tyrosinase = test: Inhibitory effects on tyrosinase activity (L-tyrosine substrate, time course of absorbance at 475 nm, method of Patent Document 1); assay type: biochemical; conditions: Experiment 4, FIG. 3, aqueous solution of 1% sample, 0-15 min
Procedure: The experiment was carried out in the same manner as that described in Patent Document 1. An aqueous solution of 1% 3H2P, an aqueous solution of 1% coumalin (Tokyo Chemical Industry Co., Ltd.), an aqueous solution of 1% coumalic acid (Tokyo Chemical Industry Co., Ltd.), and an aqueous solution of 0.01% kojic acid were prepared. Subsequently, 1.45 ml of a substrate-sample mixture comprising an aqueous solution of L-tyrosine (0.3 mg/ml), a sample solution of 3H2P, etc., and McIlvaine buffer (pH 6.8) was introduced into a test tube, 0.05 ml of a tyrosinase solution (1 mg/ml) was added thereto, the resultant was mounted on a spectrophotometer capable of maintaining a constant temperature of 37° C., and the absorbance was measured at 475 nm with the elapse of time (once every minute between 0 min and 15 min).

tyrosinase (Sigma) = test: Inhibition rate of tyrosinase activity (L-DOPA substrate, absorbance 475 nm); assay type: biochemical
Procedure: In the experiment, 0.2 ml of an enzyme solution containing 72 units/ml tyrosinase (Sigma) was mixed with 1.0 ml of a substrate mixture (i.e., a 2:2:1 mixture of a 6 mM L-DOPA solution, the test composition with the adjusted concentration (hereafter referred to as the “sample”), and phosphate buffer), the absorbance was measured at 475 nm at 37° C. at 0 min and […], and the inhibition rate of tyrosinase activity was determined using the equation shown below.
Inhibition rate of tyrosinase activity (%)=(1−(the difference in the absorbance of the sample between […] and 3 min)/(the difference in the absorbance of the blank between 0 min and 3 min)×100
(§1) In the experiment, 0.2 ml of an enzyme solution containing 72 units/ml tyrosinase (Sigma) was mixed with 1.0 ml of a substrate mixture (i.e., a 2:2:1 mixture of a 6 mM L-DOPA solution, the sample with the adjusted concentration, and phosphate buffer (pH 6.8)), the absorbance was measured at 475 nm at 37° C. at 0 min and 3 min, and the inhibition rate of tyrosinase activity was determined using the equation shown below.
Inhibition rate of tyrosinase activity (%)=(1−(the difference in the absorbance of the sample between 0 min and 3 min)/(the difference in the absorbance of the blank between 0 min and 3 min)×100
as §1, with “buffer),” for “buffer (pH 6.8)),”

[1] = tested on: B16 mouse melanoma 4A5 cells; test: Inhibition of melanin production in B16 mouse melanoma 4A5 cells; assay type: cell-based; conditions: for Melanin level: 5 days culture with sample, relative to control designated as 100
Procedure: (§2) B16 mouse melanoma 4A5 cells (RIKEN) were seeded at 5.0 x 10^4 cells/well on a 6-well plate and cultured in Dulbecco's modified Eagle's medium (DMEM) supplemented with 10% FBS at 37° C. in the presence of 5% CO2. The medium was exchanged with fresh medium supplemented with the sample on the following day, and culture was conducted in the medium supplemented with the sample for an additional 5 days. The medium was removed 6 days after the initiation of culture, and the cells were collected by using trypsin. The collected cells were suspended in 1N sodium hydroxide, and melanin was extracted via heating. The absorbance of the melanin extract was measured at 405 nm, and the melanin level was quantified with the calibration curve of the melanin reagent (Sigma). In addition, the amount of proteins in the collected cells was determined using the DC Protein Assay KIT (BIO-RAD) and used as the indicator for the viable cell count.
as §2, with “5.0×10^4” for “5.0 x 10^4”

[2] = tested on: B16 mouse melanoma 4A5 cells; test: Viable cell count (protein amount, DC Protein Assay) in B16 mouse melanoma 4A5 cells
Procedure: as §2
as §2, with “5.0×10^4” for “5.0 x 10^4”

[3] = Experiment 6, FIG. 5, kojic acid, 3H2P and 3H4P compared
[4] = Experiment 7, FIG. 6, 3H4P, 3H2P and kojic acid compared
[5] = Experiment 3, 1 μg/ml, relative to control designated as 100
[6] = Experiment 3, 5 μg/ml, relative to control designated as 100
[7] = Experiment 3, 10 μg/ml, relative to control designated as 100

SMILES | inhibitory effects on tyrosinase activity (tyrosinase) | inhibitory effects on tyrosinase activity (tyrosinase (Sigma); [3]) | Melanin level ([1]; Experiment 7, 50 μg/ml) | Melanin level ([1]; Experiment 7, 100 μg/ml) | inhibitory effects on melanin production [1, 4] | Melanin level ([1]; Experiment 3, 1 μg/ml) | Melanin level ([1]; Experiment 3, 5 μg/ml) | Melanin level ([1]; Experiment 3, 10 μg/ml) | Cell count [2, 5] | Cell count [2, 6] | Cell count [2, 7] | also measured
O=c1cccco1 [coumalin] | insignificant levels of inhibitory effects | – | – | – | – | – | – | – | – | – | – | –
O=c1cc(CO)occ1O [Kojic acid, kojic acid] | – | strongest inhibitory effects on tyrosinase activity | 85.6 | 65.3 | – | – | – | – | – | – | – | Melanin level ([1]; Experiment 3, 50 μg/ml): 76.5; Melanin level ([1]; Experiment 3, 100 μg/ml): 65.7; Cell count ([2]; Experiment 3, 50 μg/ml, relative to control designated as 100): 80.2; Cell count ([2]; Experiment 3, 100 μg/ml, relative to control designated as 100): 74.1; Cell count ([2]; Experiment 7, 50 μg/ml, relative to control designated as 100): 80.2; Cell count ([2]; Experiment 7, 100 μg/ml, relative to control designated as 100): 74.1
O=c1ccocc1O [3H4P, 3-Hydroxy-4-pyrone] | – | – | 88.8 | 50.9 | equivalent to those of kojic acid | – | – | – | – | – | – | Cell count ([2]; mouse, 5 days, 50 μg/ml): 89.7; Cell count ([2]; mouse, 5 days, 100 μg/ml): 84.4
O=C(O)c1ccc(=O)oc1 [coumalic acid] | strong inhibitory effects | – | – | – | – | – | – | – | – | – | – | –
OC[C@H]1O[C@@H](Oc2ccc(O)cc2)[C@H](O)[C@@H](O)[C@@H]1O [Arbutin, arbutin] | – | – | – | – | – | 82.4 | 43.0 | 23.9 | 96.2 | 91.7 | 86.0 | –
O=c1occcc1O [3H2P, 3-hydroxy-2-pyrone] | significantly stronger than those of coumalin and coumalic acid | equivalent to those of 3H4P | – | – | stronger inhibitory effects on melanin production than such γ-pyrone compounds | 71.7 | 34.3 | 20.7 | 92.2 | 81.9 | 72.4 | inhibitory effects on tyrosinase activity (tyrosinase (Sigma); Experiment 2, FIG. 1, compared with kojic acid and ascorbic acid): equivalent to those of ascorbic acid, although such effects are somewhat weaker than those of kojic acid; inhibitory effects on tyrosinase activity (tyrosinase (Sigma); Experiment 5, FIG. 4, final concentrations 0.3%, 0.1% and 0.033%): apparently stronger than those of coumalin and coumalic acid; inhibitory effects on melanin production ([1]; Experiment 3, FIG. 2, compared with arbutin and kojic acid): stronger than those of kojic acid and equivalent to those of arbutin; concentration at which inhibitory effects on melanin production are exerted ([1]; Experiment 3, 1 ppm = 1 μg/ml, 0.0001%): ≤ 1 ppm; Melanin level ([1]; Experiment 7, 1 μg/ml): 77.2; Melanin level ([1]; Experiment 7, 5 μg/ml): 42.7; Melanin level ([1]; Experiment 7, 10 μg/ml): 29.6; Cell count ([2]; Experiment 7, 1 μg/ml, relative to control designated as 100): 102.0; Cell count ([2]; Experiment 7, 5 μg/ml, relative to control designated as 100): 98.7; Cell count ([2]; Experiment 7, 10 μg/ml, relative to control designated as 100): 93.8
